| Structure (SMILES) | melting point |
| --- | --- |
| CCCCCCCC(=O)c1cn(CCCC(=O)O)c2ccccc12 | 100 to 102 °C |
| O=C(NCC(O)(Cn1cncn1)c1ccc(Cl)cc1Cl)c1cccnc1 (configuration not stated) | 175 °C |
| CCCCCCc1nc(N)n2nc(-c3ccco3)nc2n1 | 131 to 133 °C |
| CC(C)C1(C)N=C(c2ccccc2C(=O)O)N(O)C1=O (configuration not stated) | 186 to 188 °C |
| S=C(Nc1ccccc1)N1CCN(c2nc3cccccc-3n2)CC1 | 267 to 269 °C |
| COc1cc(C(C)C)ccc1C1(NC(=O)c2ccccc2)C(=O)c2ccccc2C1=O | 106 to 108 °C |
| CCc1ccc(OCC(=O)N(Cc2nc(-c3cccnc3)no2)C(C)C)cc1 | 87.9 to 89.4 °C |
| CC(C)CCC1(c2ccccc2)CC(O)=C(Sc2ccccc2C(C)C)C(=O)O1 (configuration not stated) | 64 to 66 °C |
| CCc1cc2oc3cc(-c4ccccc4Cl)c4c(c3c2cc1OC)C(=O)NC4=O | 252 to 257 °C |
| O=C(O)C1CSC(c2ccccc2F)N1 (mixture of isomers) | 147 °C |
| Cc1ccc(C(O)C2OC2C(C)(C)C)cc1 (configuration not stated) | 36 to 39 °C |
| COC(=O)c1ccc(Cc2cccc3ccc(C=O)cc23)c(OC)c1 | 103 to 104 °C |
| CCCCCOC(=O)Cc1nc(-c2ccccc2)oc1-c1ccsc1 | 61 to 62 °C |
| CCCc1c(OCCCCCOc2ccccc2OCC(=O)O)ccc2c1OCCC2=O | 98 to 99 °C |
| O=c1c(Cc2cccnc2)nc2cccnc2n1-c1cccc(-c2ccc3ccccc3c2)c1 | 155 to 156 °C |
| O=C(O)CCc1cnc2ccccc2c1 | 180 to 181 °C |
| O=C(c1ccc(O)cc1)c1ccon1 | 125 to 127 °C |
| CC1NC(=O)NN=C1c1ccc(OCC(=O)NN)c(Cl)c1 (configuration not stated) | 252 to 254 °C |
| COc1ccc(CCCNC(=O)N(C)O)cc1OC | 99 to 100 °C |
| NS(=O)(=O)c1cnc(NC(=O)c2cnn3c(C(F)F)cc(-c4ccc(C(F)(F)F)cc4)nc23)s1 | 311 °C |
| FC(F)(F)Sc1[nH]ccc1-c1ccc(Cl)cc1 | 44 to 46 °C |
| Cc1cc(C)cc(C(=O)c2ccc(O)c(CC(=O)O)c2)c1 | 242 °C |
| CN(C)CC#Cc1ccc(C(CC2CCCC2)C(=O)Nc2nccs2)cc1 (configuration not stated) | 164 to 167 °C |
| COC(=O)c1ccc2c(c1)C(C(=O)O)c1ccccc1CO2 (configuration not stated) | 223 to 224 °C |
| CCC(C(=O)c1ccc(OCc2ccccc2)cc1)c1ccccc1 (configuration not stated) | 71 °C |
| COc1c(C=CC(=O)O)cccc1Oc1ccccc1Cl | 145 to 147 °C |

| Structure (SMILES) | melting point |
| --- | --- |
| CCCCn1ccc(Cc2cnc(N[N+](=O)[O-])[nH]c2=O)cc1=O | 198 to 201 °C |
| Cc1ncc(C(=O)NCc2cc(C(F)(F)F)cc(C(F)(F)F)c2)c(-c2ccccc2Br)n1 | 138 °C |
| COc1ccc2c(c1)C(=O)N(c1ccc3c(cnn3C)c1)C2 | 213 to 214 °C |
| Cc1ccc(-c2ccc3c(c2)C=C(C(=O)Nc2ccc(CN4CCSCC4)cc2)CC3)cc1 | 178 to 180 °C |
| CCCSc1ccc2cc[nH]c2c1 | 54 to 55 °C |
| Cc1cc2nc3c4cc(Br)ccc4n(CCN(C)C)c3nc2cc1C | 146 to 147 °C |
| COc1cc2c(c(OC)c1)C1CCC3(C)C(OC(C)=O)CCC3C1CC2 (configuration not stated) | 131 to 134 °C |
| Cc1c(O)ccc2c1OCC(c1ccc(N)cc1)C2 (configuration not stated) | 150 to 151 °C |
| O=C(O)c1cc([N+](=O)[O-])ccc1-c1ccc([N+](=O)[O-])cc1C(=O)O | 255 to 258 °C |
| N#CC(C#N)=C1Sc2nc3cc([N+](=O)[O-])c([N+](=O)[O-])cc3nc2S1 | > 300 °C |
| Clc1ccc2c(c1)c(-c1ccccc1)nc1nncn12 | 295 to 297 °C |
| Cc1ccc2c(c1)C(=O)N(CCN1CCC(c3noc4cc(F)ccc34)CC1)C2=O | 138 to 140 °C |
| CCC(C)N1CCC(CNc2ccc(Cl)cc2C(=O)Nc2ccc(C)cn2)CC1 (configuration not stated) | 126 to 128 °C |
| C=Cc1c(N)nc(-c2ccc(Cl)c(F)c2F)nc1C(=O)OC | 130 to 132 °C |
| COc1ccc(CCCc2ccc(O)cc2O)c(OC)c1C | 108 °C |
| CCCCOC(=O)c1ccc(N(C)C=Nc2ccc(C(=O)OCC)cc2)cc1 | 83 to 85 °C |
| COc1ccccc1N1CCN(CCC(N)=O)CC1 | 145 to 146 °C |
| O=Cc1c(O)cccc1OCc1ccc(-c2nnn[nH]2)cc1 | 206 °C |
| Cn1ccnc1C=NO | 170 to 172 °C |
| CSc1cc2c(cc1C(F)(F)F)N(C(=O)Nc1ccc(Oc3ccccc3)nc1)CC2 | 86 to 88 °C |
| CCCCCc1c(C(C)C)nc(C(C)C)c(CO)c1-c1cccc(Cl)c1 | 94 to 95 °C |
| C=CCOC(=O)NCC(=N)NO | 91 to 92 °C |
| COc1ccccc1-n1c(-c2sc(Nc3ccc(Cl)cc3)nc2-c2ccccc2)nc2ccccc2c1=O | 230 to 232 °C |
| COC(=O)c1cccc([N+](=O)[O-])c1CBr | 67 to 70 °C |
| COC(=O)c1nc(-c2ccc(Cl)c(OC)c2F)c(F)c(NC(C)=O)c1Cl | 175 to 177 °C |
| COC(=O)c1ccc(OC2=C3N=C4CCCCC4=C3C(Cc3ccc(OC)c(OC)c3)C=C2)o1 (configuration not stated) | 100 to 101 °C |

| Structure (SMILES) | melting point |
| --- | --- |
| COc1ccc(C(C)=Cc2ccc3ccccc3c2)cc1 | 141 °C |
| Cc1cccc2c1NC(=O)C(CCCN1CCN(c3ccccc3F)CC1)S2 (configuration not stated) | 121 to 123 °C |
| CC(C)(C)COc1ccc([N+](=O)[O-])cc1 | 36 °C |
| Cc1ccccc1Oc1cccc2c1OC(=O)CC2 | 80 to 82 °C |
| CCOC(=O)c1nn(-c2c(Cl)cc(C(F)(F)F)cc2Cl)cc1OC(F)(F)C(F)Cl (racemic) | 105 to 106 °C |
| Cc1ccc(-c2ccccn2)cc1S(N)(=O)=O | 173 to 176 °C |
| COC(=O)c1cc([N+](=O)[O-])c(C(F)(F)F)cc1NC(C)=O | 75 to 80 °C |
| Fc1ccc(-c2ncn(CCCN3CCOCC3)c2-c2ccncc2)cc1 | 149 to 150 °C |
| CCC#CCOc1cc2c(cc1/C=C/c1ccc(C(=O)OCC)cc1)C(C)(C)CCC2(C)C | 80 to 82 °C |
| CN(C)CCOc1ccc([C@H]2C[C@]3(C)C(=O)CC[C@H]3[C@@H]3CCc4c(ccc(O)c4Cl)[C@H]32)cc1 | 254 °C |
| NC(=O)C(CCCCCCCCCCCCC(C(N)=O)C1CC1)C1CC1 (configuration not stated) | 157 to 158 °C |
| N#Cc1cnc2c(oc3ccccc32)c1Cl | 229 to 231 °C |
| Fc1ccc(-c2nc3ccccc3nc2-c2ccc(F)cc2)cc1 | 132 °C |
| O=C(O)/C(=C\c1cc(-c2ccc3c(c2)OCO3)n(-c2cc(Cl)ccc2Cl)n1)c1cccc(Cl)c1 | 174 °C |
| CCOC(=O)c1cn[nH]c1C(=O)CC(C)C | 105 to 107 °C |
| CC(C)(CO)NS(=O)(=O)c1cccc(NC(=O)c2cnn3c(C4CC4)cc(-c4ccc(C(F)(F)F)cc4)nc23)c1 | 228 to 230 °C |
| CC(=O)OC1(C)CCC2C(C)(C)CCCC2(C)C1CCC(C)(O)C1CO1 (configuration not stated) | 130 to 131 °C |
| O=S(=O)(O)c1ccc(OC2=C(Oc3ccc(S(=O)(=O)O)cc3)C(F)(F)C(F)(F)C2(F)F)cc1 | 251 to 255 °C |
| Cn1c(OC2CCOC2)nn(C(=O)Oc2ccccc2)c1=O (configuration not stated) | 98 °C |
| Nc1ccnc(N)c1I | 140 °C |
| COc1cc(C#N)cc(-c2ccc3c(c2)C(C)(C)OC(=O)N3)c1 | 254 to 255 °C |
| O=c1c2ccc(Cl)cc2ncn1CCCCn1ccnc1 | 123 to 125 °C |
| COC(=O)C(=NO)N(C)c1cccc(C(F)(F)F)c1 | 131 °C |
| CC[C@@H]1NC(=O)C(F)(F)[C@@H]1O | 118 to 121 °C |
| CCOC(=O)C1=C(COCCNC(=O)n2ccnc2)NC(C)=C(C(=O)OC)C1c1ccccc1Cl (configuration not stated) | 149 to 151 °C |
| c1ccc(CC[C@H]2CN(C3=Nc4ccccc4Sc4ccccc43)CCN2)cc1 | 48 to 59 °C |

| Structure (SMILES) | melting point |
| --- | --- |
| Cc1cccc(NC(=O)NN2CCN(CCc3c[nH]c4ccccc34)CC2)c1 | 186 to 188 °C |
| O=C1c2ccccc2C(=O)c2c(NCCN3CCOCC3)ccc(NCCN3CCOCC3)c21 | 158 to 159 °C |
| COc1cc2c(cc1OC)CN(CCc1ccc(-c3ccccc3)cc1)CC2 | 162 to 164 °C |
| Cc1ccc2nc(NC(=O)c3ccc(C(C)(C)CCC(=O)O)cc3)cn2c1 | 280 to 282 °C |
| CC(=O)Oc1cc(OC(C)=O)c2c(c1)OC(c1ccc(OC(C)=O)c(OC(C)=O)c1)CC2 (configuration not stated) | 143 to 144 °C |
| COCC(=O)Nc1c(C(=O)c2cccc(C)c2)[nH]c2ccc([N+](=O)[O-])cc12 | 155 to 157 °C |
| CCCCCCCCNC(=O)CSc1nc(Cl)cc(Nc2cccc(C)c2C)n1 | 144 to 146 °C |
| COc1ccc(CN2CC=C(/C=C/c3ccccc3)CC2)cc1 | 144 to 146 °C |
| Cc1n[nH]c2c1CCc1[nH]ncc1-2 | 250 to 252 °C |
| Cc1cccc2c1[C@@H]1CN(C)CC[C@@H]1CC2=O (relative stereo) | > 220 °C |
| CCOC(=O)c1ccc(N2CCCC2=O)cc1 | 94 to 95 °C |
| CN1CCC(=C2c3ccccc3C=Cc3ccc(Br)cc32)CC1 | 189 to 190 °C |
| CCn1c(C)c(C(=O)c2nccnc2C(=O)O)c2ccccc21 | 212 to 213 °C |
| COc1ccc2c(c1)CCC1=C2CCC2(C(C)C)C(=O)CCC12 (configuration not stated) | 85 to 100 °C |
| O=C(NCc1ccccc1)c1ccc(OC2CCCC2)c2oc3ccccc3c12 | 172 to 175 °C |
| CCc1nc2cc(C)c(Cl)nc2n1-c1ccc(CCNC(=O)NS(=O)(=O)c2ccc(C)cc2)cc1 | 205 to 206 °C |
| CC(C)Oc1nccc(-c2c(-c3ccc(F)cc3)ncn2C2CCNCC2)n1 | 121 to 122 °C |
| Cc1ccc(C)c(S(=O)(=O)n2ccc3c4c(N)nc(N)nc4ccc32)c1 | 272 °C |
| COc1cccc2c(C(F)(F)F)cc(C)nc12 | 112 to 113 °C |
| N#Cc1sc(N2CCCC2)nc1N | 305 to 308 °C |
| CCN(CC)Cc1ccc2c(c1)-c1[nH]nc(-c3ccsc3)c1C2 | 157 to 158 °C |
| CCCCc1nc2cc3ccccc3cc2[nH]1 | 190 °C |
| COC(=O)CCc1cc(Cl)ccc1C(=O)CCCNC(C)=O | 46 to 48 °C |
| Cc1nc(N)sc1S(=O)(=O)NC(C)(CO)CO | 170 °C |

— a melting point compilation (Tetko et al.; mined from patent text by program, amines drawn as free bases though some values may be those of a salt)
